Laboratory results taken from patent US11413280B2 (The Board of Trustees of the Leland Stanford Junior …, priority 2017, dated 2022).

What was measured:
Format in all cases: cell-based, human
[1] = system: PAEC; experiment: γH2AX staining (DNA damage); conditions: siBMPR2 and siFHIT PAEC, 10 μM Enzastaurin for 24 hours
Protocol: Assays were conducted according to the manufacturer's instructions and as previously described(E1,E9).
Quantified area=% of cells that show nuclear γH2AX staining quantified with automated software (white nuclei=positive stain, grey nuclei=background stain). […] (n=3). […] (n=3).
As a cumulative viability measurement, we quantified caspase3/7 activity, using the luminescent Caspase-Glo®3/7 assay(36) and DNA damage, using histone H2AX phosphorylation by immunofluorescence and quantification as nuclear area staining (%) by confocal microscopy(34, 35, 37). […] PAEC proliferation was assessed via an MTT proliferation assay and hemocytometer cell counts(36).

[2] = system: FHIT; experiment: Relative FHIT mRNA expression in PAECs (qPCR); conditions: PAEC, 24 hours, low doses (5-15 uM), FIG. 14
Protocol: (§1) Human PAEC (Promocell) or human PASMC (Promocell) were grown as monolayers in gelatin-coated dishes in a commercial EC (Promocell) or SMC (Promocell) media, respectively. Cells were passaged at 1:3 ratios and used for experiments from passages 3-8. Transformed lymphocytes (i.e., lymphoblasts) were cultured in RPMI 1640 with 10-15% FBS.
(§2) FHIT expression was modulated by RNAi in PA endothelial cells (PAEC). A pool of 4 siRNAs for BMPR2, FHIT, LCK or a non-targeting control pool (Dharmacon) were transfected into PAECs using the RNAi Max kit (Invitrogen) for 48 hours. mRNA knockdown efficiency was determined by qPCR.
(§3) For mRNA, total RNA was extracted from whole lung tissue using the RNAeasy Plus Kit (Qiagen) and reverse transcribed into cDNA using random primers with the Taqman cDNA reverse transcription Kit (Applied Biosciences) according to the manufacturer's instructions. For miR, total miR was isolated from whole lung tissue using the Taqman miRNA ABC purification Kit (Applied Biosciences) and was reverse transcribed using specific primers and the Taqman microRNA reverse transcription kit (Applied Biosciences). mRNA and miR expression levels were quantified using Taqman primer/probe sets for the target and normalized to a housekeeping control (mRNA: GAPDH; miR: RNU48). […]

[3] = system: BMPR2; experiment: Relative BMPR2 mRNA expression in PAECs (qPCR); conditions: PAEC, 24 hours, low doses (5-15 uM), FIG. 14
Protocol: as §1, §2, §3

Cn1cc(C2=C(c3cn(C4CCN(Cc5ccccn5)CC4)c4ccccc34)C(=O)NC2=O)c2ccccc21 [Enzastaurin, 3-(1-methyl-1H-indol-3-yl)-4-[1-[1-(pyridin-2-ylmethyl)piperidin-4-yl]-1H-indol-3-yl]-1H-pyrrole-2,5-dione]
DNA damage (nuclear γH2AX staining) induced by FHIT or BMPR2-loss [1]: significantly attenuated
FHIT expression at low doses in vitro [2]: increased
BMPR2 expression at low doses in vitro [3]: increased
